From patent US20110183978A1, “Phenylpyri(mi)dinylazoles” (Bayer CropScience AG, priority 2009, published 2011)
Like-named read-outs stand apart in the source and are kept apart here.

Tests used:
[1] = tested on: Pyrenophora teres; assay: Example E: in vivo test on Pyrenophora teres (barley net blotch disease); settings: barley plants sprayed 24 hours before inoculation, scored after 12 days; for pest or weed control at 500 ppm: Pyrenophora teres, 288 h, read-out: % Wirkungsgrad
Procedure: In Vivo Test on Pyrenophora Teres (Barley Net Blotch Disease) An aqueous suspension of the active substance was prepared by homogenization of a mixture of acetone/Tween/dimethyl sulphoxide and subsequent dilution with water to the desired concentration. Barley plants (variety: Plaisant) are sown in cultivation dishes on a peat-pozzolanic earth substrate (50/50) at 12° C. and sprayed at the first-leaf stage (10 cm size) with the aqueous suspension described above. As a control, plants are sprayed with an aqueous solution with no active substance. After 24 hours the plants are inoculated by spraying with an aqueous suspension of Pyrenophora teres spores (12,000 spores per ml). The spores are derived from a 12 day-old culture. […] After 12 days they are scored in comparison with the control plants.

[2] = physchem
[3] = tested on: Peronospora parasitica; assay: Example A: in vivo test on Peronospora parasitica (downy mildew on white cabbage); settings: cabbage plants sprayed 24 hours before inoculation, scored after 5 days; for pest or weed control at 500 ppm: Hyaloperonospora parasitica, 120 h, read-out: % Wirkungsgrad
Procedure: In Vivo Test on Peronospora Parasitica (Downy Mildew on White Cabbage) An aqueous suspension of the active substance was prepared by homogenization of a mixture of acetone/Tween (dispersant)/dimethyl sulphoxide (DMSO) and subsequent dilution with water to the desired concentration. Cabbage plants (variety: Eminence) are sown in cultivation dishes on a peat-pozzolanic earth substrate (50/50) at 18-20° C. and sprayed at the cotyledon stage with the aqueous suspension described above. As a control, plants are sprayed with an aqueous solution with no active substance. After 24 hours, the plants are inoculated by spraying with an aqueous suspension of Peronospora parasitica spores (50,000 spores per ml). The spores are derived from infected plants. The inoculated cabbage plants are incubated for 5 days at ca. 20° C. in a moist atmosphere. After 5 days, they are scored in comparison with the control plants.

[4] = tested on: Fusarium graminearum; assay: microbe, parasite or virus in culture; format: cell-based
[5] = tested on: Sphaerotheca fuliginea; assay: Example D: in vivo test on Sphaerotheca fuliginea (powdery mildew on cucumber); settings: Podosphaera fuliginea, 288 h, cucumber plants sprayed 24 hours before inoculation, scored after 12 days, read-out: % Wirkungsgrad
How it was run: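 Cucumber plants at cotyledon stage Z10 were sprayed with the compound suspended in acetone/Tween/DMSO diluted with water. After 24 hours they were inoculated with Sphaerotheca fuliginea spores (100,000/ml) and incubated at ca. 20/25° C. and 60/70% RH. Disease was scored after 12 days against untreated sprayed controls.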

[6] = tested on: Alternaria solani; assay: Example M: in vivo test on Alternaria solani (leaf blotch disease/tomato/protective); settings: 168 h, tomato, protective, 500 ppm active substance, assessed 7 days after inoculation, read-out: % Wirkungsgrad (activity level)
How it was run: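 Protective test: young tomato plants sprayed with active substance (in DMF with alkylaryl polyglycol ether emulsifier, diluted in water) at the stated dosage, then inoculated with Alternaria solani. Disease assessed 7 days after inoculation.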

[7] = tested on: Sphaerotheca fuliginea; assay: Example L: in vivo test on Sphaerotheca fuliginea (powdery mildew on cucumber/protective); settings: Podosphaera fuliginea, 168 h, cucumber, protective, assessment 7 days after inoculation, read-out: % Wirkungsgrad
How it was run: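 Young cucumber plants sprayed at stated dosage with compound in DMF/alkylaryl polyglycol ether emulsifier diluted in water; inoculated with S. fuliginea spores one day later. Kept in greenhouse at 70% relative humidity, 23° C; protective activity assessed 7 days after inoculation.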

[8] = tested on: Pyricularia oryzae; assay: whole plant or invertebrate; format: in vivo; settings: 120 h, read-out: % Activity level
[9] = tested on: Rhizoctonia solani; assay: Example W: in vivo test on Rhizoctonia solani (sheath blight in rice/protective); settings: 96 h, rice, protective, 250 ppm active substance, assessed 4 days after inoculation, read-out: % Activity level
Procedure: Solvent: 28.5 parts by weight acetone Emulsifier: 1.5 parts by weight alkylaryl polyglycol ethers For the preparation of a suitable active substance preparation, 1 part by weight of active substance is mixed with the stated quantities of solvent and emulsifier and the concentrate is diluted to the desired concentration with water. For the testing for protective activity, young rice plants are sprayed with the active substance preparation at the stated application dosage. One day after the treatment, the plants are inoculated with hyphae of Rhizoctonia solani. […] 4 days after the inoculation, the assessment takes place.

[10] = tested on: Fusarium proliferatum; assay: Example I: production of fumonisin FB1 by Fusarium proliferatum (microtitre plates); format: cell-based; settings: for inhibition at 50 µM: 120 h
[11] = tested on: Botrytis cinerea; assay: Example P: in vivo test on Botrytis cinerea (gray mould on bean/protective); settings: 48 h, bean, protective, 250 ppm active substance, assessed 2 days after inoculation, read-out: % Wirkungsgrad (activity level)
How it was run: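 Protective test: young bean plants sprayed with the active substance preparation (emulsifier-based concentrate diluted in water) at the stated dosage. Once dry, each leaf received 2 agar pieces bearing Botrytis cinerea. Infection blotch size assessed 2 days after inoculation.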

[12] = tested on: Venturia inaequalis; assay: Example O: in vivo test on Venturia inaequalis (apple scab/protective); settings: 240 h, protective, assessment 10 days after inoculation, read-out: % Wirkungsgrad
How it was run: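 Protective test: active substance mixed with solvent and alkylaryl polyglycol ether emulsifier, diluted with water, and sprayed on young plants at the stated dosage before Venturia inaequalis inoculation. Scab assessed 10 days after inoculation.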

[13] = tested on: Cochliobolus miyabeanus; assay: Example X: in vivo test on Cochliobolus miyabeanus (brown spot disease, rice/protective); settings: Bipolaris oryzae, 96 h, read-out: % Activity level
[14] = tested on: Fusarium graminearum; assay: whole plant or invertebrate; format: in vivo; settings: in Hordeum vulgare, 120 h, read-out: % Wirkungsgrad (activity level)
[15] = tested on: Septoria tritici; assay: Example R: in vivo test on Septoria tritici (leaf blotch in wheat/protective); settings: Zymoseptoria tritici, 504 h, wheat, protective, 1000 ppm active substance, assessed 21 days after inoculation, read-out: % Wirkungsgrad (activity level)
How it was run: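 Protective test: young wheat plants sprayed with compound in N,N-dimethylacetamide/alkylaryl polyglycol ether emulsifier diluted in water, dried, then inoculated with Septoria tritici spore suspension. Disease assessed 21 days after inoculation.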

[16] = tested on: Leptosphaeria nodorum; assay: Example Q: in vivo test on Leptosphaeria nodorum (glume blotch in wheat/protective); settings: Parastagonospora nodorum, 192 h, wheat, protective, assessment 8 days after inoculation, read-out: % Wirkungsgrad
How it was run: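 Protective test: young wheat plants sprayed with compound formulated in N,N-dimethylacetamide plus alkylaryl polyglycol ether emulsifier, diluted in water to the stated dose. After drying, plants inoculated with L. nodorum spore suspension; disease assessed 8 days post-inoculation.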

[17] = tested on: Fusarium nivale (var. majus); assay: whole plant or invertebrate; format: in vivo; settings: Microdochium nivale, in Triticum aestivum, 120 h, read-out: % Wirkungsgrad (activity level)
[18] = tested on: Plasmopara viticola; assay: Example N: in vivo test on Plasmopara viticola (downy mildew, vine/protective); settings: 144 h, vine, protective, assessment 6 days after inoculation, read-out: % Wirkungsgrad
How it was run: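 Protective test: young vine plants were sprayed with active substance diluted in water from a solvent/alkylaryl polyglycol ether emulsifier concentrate at the stated dosage, then inoculated with P. viticola. Plants were moistened and kept 1 day in an incubation cabin, and assessed 6 days after inoculation.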

[19] = tested on: Rhynchosporium secalis; assay: Example S: in vivo test on Rhynchosporium secalis (leaf scald in barley/protective); settings: 336 h, barley, protective, 1000 ppm active substance, assessed 14 days after inoculation, read-out: % Wirkungsgrad (activity level)
Procedure: Solvent: 49 parts by weight N,N-dimethylacetamide Emulsifier: 1 part by weight alkylaryl polyglycol ethers For the preparation of a suitable active substance preparation, 1 part by weight of active substance is mixed with the stated quantities of solvent and emulsifier and the concentrate is diluted to the desired concentration with water. For the testing for protective activity, young plants are sprayed with the active substance preparation at the stated application dosage. After drying of the spray coating, the plants are sprayed with spores with a spore suspension of Rhynchosporium secalis. […] 14 days after the inoculation, the assessment takes place.

[20] = LogPA (logP of the stated pure compound or, in a mixture, of the main isomer, 1-substituted 3-aryl-1H-pyrazole)
[21] = 72 h, read-out: % Inhibition des Pilzwachstums bei 50 μM
[22] = 168 h, read-out: % Inhibition der DON/AcDON produktion bei 50 μM
[23] = Fusarium proliferatum growth, OD 620, 5 days, read-out: % Inhibition des Pilzwachstums bei 50 μM
[24] = Fusarium proliferatum, 5 days at 20° C., HPLC-MS/MS, read-out: % Inhibition der FB1 produktion bei 50 μM

Structure (SMILES)	pest or weed control at 500 ppm [1]	chromatographic logP [2, 20]	pest or weed control at 500 ppm [6]	pest or weed control at 500 ppm [7]	pest or weed control at 250 ppm [8]	pest or weed control at 250 ppm [9]	pest or weed control at 250 ppm [11]	pest or weed control at 100 ppm [12]	also measured
CC(C)=CCn1cc(-c2ccncc2)c(-c2c(F)cccc2F)n1 [Compound 7]	73%	1.69	–	–	–	–	–	–	–
C=CCNc1nccc(-c2cn(CC(C)C)nc2-c2ccc(F)cc2)n1 [Compound 150]	86%	2.46	95%	93%	–	–	–	–	pest or weed control at 500 ppm [3]: 100%; inhibition at 50 µM [4, 21]: 97%; inhibition at 50 µM [4, 22]: 99%; pest or weed control at 500 ppm [5]: 96%
CC(C)Cn1ncc(-c2ccncc2)c1-c1ccc(F)cc1 [Compound 24]	92%	1.59	–	–	–	–	–	–	pest or weed control at 500 ppm [5]: 88%
N#Cc1ccccc1Cn1cc(-c2ccncc2)c(-c2ccc(F)cc2)n1 [Compound 136]	71%	1.49	95%	73%	80%	97%	–	–	pest or weed control at 500 ppm [3]: 94%; pest or weed control at 500 ppm [5]: 91%
CC(C)C(=O)Nc1cc(-c2cn(C3CCCCO3)nc2-c2ccc(F)cc2)ccn1 (stereo not shown) [Compound 21]	–	–	–	–	–	–	–	–	% Wirkungsgrad ([3]; 500 ppm): 100%; % Inhibition der FB1 produktion bei 50 μM ([10]; 5 days at 20° C., HPLC-MS/MS): 100%; % Inhibition des Pilzwachstums bei 50 μM ([10]; Fusarium proliferatum growth, OD 620, 5 days): 55%; % Wirkungsgrad ([1]; 500 ppm): 73%
O=C(Nc1cc(-c2cn(CC(F)F)nc2-c2ccc(F)cc2)ccn1)C1CC1 [Compound 217]	–	–	–	100%	85%	100%	95%	98%	inhibition at 50 µM [10, 23]: 97%; inhibition at 50 µM [10, 24]: 100%; chromatographic logP ([2]; LogPA): 2.07; pest or weed control at 250 ppm [13]: 85%
CC(C)=CCn1cc(-c2ccncc2)c(-c2ccc(F)cc2)n1 [Compound 30]	–	2.11	90%	–	80%	95%	–	–	–
CCC(=O)Nc1cc(-c2cn(C3CCCCO3)nc2-c2ccc(F)cc2)ccn1 (stereo not shown) [Compound 19]	83%	2.32	–	–	–	–	–	–	pest or weed control at 500 ppm [3]: 100%; inhibition at 50 µM [10, 23]: 68%; inhibition at 50 µM [10, 24]: 100%
O=C(Nc1cc(-c2cn(CCCl)nc2-c2ccc(F)cc2)ccn1)C1CC1 [Compound 221]	–	–	–	100%	92%	100%	100%	91%	inhibition at 50 µM [10, 23]: 99%; inhibition at 50 µM [10, 24]: 100%; inhibition at 50 µM [4, 21]: 100%; inhibition at 50 µM [4, 22]: 100%; chromatographic logP ([2]; LogPA): 2.1; pest or weed control at 250 ppm [13]: 80%
CC(C)n1cc(-c2ccncc2)c(-c2ccc(F)cc2)n1 [Compound 89]	–	1.16	89%	88%	–	92%	100%	100%	pest or weed control at 1000 ppm [14]: 100%; pest or weed control at 1000 ppm [15]: 100%; pest or weed control at 1000 ppm [16]: 83%; pest or weed control at 250 ppm [13]: 85%; pest or weed control at 1000 ppm [17]: 92%; pest or weed control at 100 ppm [18]: 73%
Fc1ccc(-c2nn(CC(F)F)cc2-c2ccncc2)cc1 [Compound 169]	–	–	–	89%	–	100%	100%	99%	inhibition at 50 µM [4, 21]: 101%; inhibition at 50 µM [4, 22]: 100%; pest or weed control at 1000 ppm [19]: 100%; pest or weed control at 1000 ppm [14]: 100%; chromatographic logP ([2]; LogPA): 1; pest or weed control at 1000 ppm [15]: 100%; pest or weed control at 1000 ppm [16]: 100%; pest or weed control at 1000 ppm [17]: 71%; pest or weed control at 100 ppm [18]: 96%
